Assay results as given in patent publication EP0095262A1, “Azabicycloalkane derivatives, their preparation and medicaments containing them” (BEECHAM GROUP PLC, priority 1982, dated 1983).

Tested on: post-synaptic Dopamine (D.A.) receptors
Assay: Inhibition of apomorphine induced climbing in the mouse
Format: in vivo
Conditions: p.o., ½ hr post dosing; dose for 50% inhibition of climbing induced by apomorphine 1 mg/kg s.c.; male CD1 mice; 30 min
Procedure: The results in the following table are an illustration of the anti-psychotic activity of the present compounds as shown by Inhibition of Apormorphine Induced Climbing in the Mouse, a standard test.
The test is based on that described by Protais, P., Constantin, J. and Schwartz J.C. (1976), Psychopharmacology, 50, 1-6.
When mice are given a dose of 1 mg/kg apomorphine and then placed in an enclosed environment, such as an inverted wire cage, they are seen to climb around the walls. This behavioural phenomenon is thought to be a consequence of the stimulation of post-synaptic Dopamine (D.A.) receptors in the nucleus accumbens. Inhibition of apomorphine induced climbing is therefore indicative of post-synaptic D.A. receptor blockade in the accumbens.
Groups of lO male CD1 mice, weighing 25-30 g were pre-treated orally with either graded doses of the test compound or vehicle, at appropriate time intervals before the subcutaneous administration of a sub-maximal dose of apomorphine (1 mg/kg). Immediately after the apomorphine injection the mice were placed in wire 'climbing cages' and each animal was scored for climbing behavour at 10 and 20 minutes post apomorphine as follows:-
The total score was calculated for each group of mice and expressed as a percentage inhibition of climbing. [formula]
ED50's and fiducial limits were calculated according to the method of Litchfield and Wilcoxon, the ED50 being the dose that produced a 50% inhibition of apomorphine - induced climbing.

Compound	ED50
4-Amino-5 -Chloro-2-Methoxy-N-[7'-Methyl-9'-(4-Methylbenzyl)-9'-aza-bicyclo[3.3.1]-non-3-P-yl]benzamide [Example 5]	0.6 p.o. ½ hr mg/kg
4-Amino-5-Chloro-2-Methoxy-N-[6'-endomethyl-9'-(4 methyl- benzyiyl)-9'-aza-bicyclo[3.3,1]-non-3-β- 1]benzamide [Example 6]	1.1 p.o. ½ hr mg/kg
2,3-Dimethoxy-N-[7'-exo-Methyl-9'-(4-methylbenzyl)-9'-aza- bicycclo-[3.3.1]-non-3-β-yl]benzamide [Example 8]	0.48 p.o. ½ hr mg/kg
4-Amino-5-Chloro-2-Methoxy-N-[6'-exo-methl-9'-(4-methylbenzyl)-9'-aza-bicyclo[3.3.1]-non-3-β-yl]benzamide [Example 7]	2.75 p.o. ½ hr mg/kg
2-[7'-exo-Methyl-9'-(4-methyl benzyl)-9'-aza-bicyclo[3.3.1] -non-3-β-yl]-phthalimidine [Example 9]	2.65 p.o. ½ hr mg/kg
COc1cc(N)c(Cl)cc1C(=O)NC1CC2CC(C)C(C1)N2Cc1ccc(C)cc1 (stereo not drawn) [Example 1, 4-Amiho-5-chloro-2-rnethoxyy-N-[6'-exo-methyl-8'-(4-methylbenzyl)-8'-azabicycloro[3.2.1]-oct-3-β-yl]-benzamide]	0.19 p.o. ½ hr mg/kg

Same assay, conditions: s.c., 4 hrs post dosing; dose for 50% inhibition of climbing induced by apomorphine 1 mg/kg s.c.; male CD1 mice

Compound	ED50
4-Amino-5-chloro-2-methoxy-N-[6'-exo-hydroxy-8'-benzyl-8'-azabicyclol[3.2.1]-oct-3'-β-yl]-benzamide [Example 4]	0.47 s.c. 4 hrs mg/kg
